Data on 3 compounds can be found in US20040087606A1, “Shivering suppression during cooling to lower body temperature” (priority 2002, published 2004).

Where “and” joins values, the source holds several entries; their conditions need not be identical. Equal values may be shown once.

Holding throughout (type): in vivo, human
Data set [1] deals with healthy subjects. As to the kind of experiment: Phase 4: as Phase 3a, meperidine plus oral buspirone. The method, then:
(§1) Five contact pads are applied to the thighs, back and abdomen of each subjects, and actively cooled. Temperatures are measured in the same manner as in Phase 1 except that the rectal temperature probe is connected to a control module and the rectal temperature signal is used by the control module to adjust inlet water temperature via a feedback control algorithm to achieve a target core body temperature of 34.5° C.
(§2) A single oral dose of acetaminophen (1000 mg), is administered within 20 minutes prior to treatment. A bolus of IV meperidine (Demerol®, 50-100 mg) is given within 5 minutes of the start of active cooling. Additional doses of meperidine are administered to maintain comfort and to prevent shivering. Active cooling and maintenance of hypothermia continues for five hours. As in the Phase 1, the subjects are actively re-warmed to a tympanic temperature of 36° C. prior to termination of the experiment. Shivering, comfort, oxyhemoglobin saturation, and arterial blood pressure are recorded as in Phase 1.
Phase 4 proceeds as described for Phase 3a, except as noted. In addition to meperidine (Demerol®), subjects are also given an oral dose of 30-60 mg buspirone.

The subject of data set [2] is healthy subjects. As to the kind of experiment: Phase 3a: contact-pad cooling to target core temperature 34.5° C. with meperidine.
From the text: (§3) Mild hypothermia is induced and maintained in healthy subjects for up to several hours. Each volunteer is cooled using contact pads (Arctic Sun Energy Transfer Pads™, Medivance, Inc., Louisville, Colo., U.S.A.). Contact pads are applied to contact the subjects, and water at a controlled temperature is delivered to and circulated through the contact pads to effect the controlled cooling of each volunteer.
as §1, §2

For data set [3], the system named is healthy subjects. The experiment in a line: Phases 1 and 3a taken together: haemodynamics, comfort, respiratory compromise, nausea. The method, then: (§4) Four contact pads are applied to the thighs and chest of each subject and each subject is rapidly cooled with an objective of reducing core body temperature to 34-35° C. Core body temperatures are measured at the tympanic membrane and the rectum. Mean skin-surface temperature is determined from the weighted average of calf, thigh, chest, and upper arm skin temperatures. Thermoregulatory vasoconstriction is evaluated using forearm minus fingertip skin-temperature gradients. Temperatures are measured using Mon-a-Therm™ themocouple probes connected to Mallinckrodt Model 6510 two-channel electronic thermometers having an accuracy near 0.1° C. (Mallinckrodt Anesthesia Products, St. Louis, Mo., U.S.A.). Temperatures are recorded before cooling is started (i.e., baseline) and subsequently at 15-minute intervals.
(§5) Each of subjects 1-5 is administered a single dose of acetomiophen (1000 mg) within 20 minutes prior to treatment and is administered a bolus of intravenous (IV) meperidine (Demerol®, 25-75 mg) within 5 minutes of the start of cooling. Subjects also receive initial doses of chlorpromazine (Thorazine®12.5-25 mg, IV). Active cooling is initiated and the inlet water temperature is controlled to achieve a target tympanic temperature between 34° C. and 35° C. Additional doses of meperidine and/or chloropromazine are administered to maintain comfort and to prevent shivering. Active cooling and maintenance of hypothermia continues for up to five hours, after which subjects are actively re-warmed to a tympanic temperature of 36° C.
(§6) The presence of shivering is noted by physical examination, electromyographic artifact on continuous electrocardiography (ECG), or by subject report. Overall thermal comfort is evaluated at 15-min intervals with a 100-mm-long visual analog scale (VAS) on which 0 mm defines the worst imaginable cold, 50 mm identifies thermal neutrality, and 100 mm indicates unbearable heat. A new, unmarked scale is used for each assessment. Heart rate and oxyhemoglobin saturation are monitored using ECG and pulse oximetry; arterial blood pressure is recorded oscillometrically at 15-minute intervals.
as §1, §2

Data set [4] deals with healthy subjects. The experiment in a line: Phase 5: as Phase 3a, meperidine plus IV ondansetron. The method, then:
as §1, §2
Phase 5 proceeds as described for Phase 3a, except as noted. The temperature of water circulated to the contact pads is controlled to achieve a target core body temperature of 34.5° C. In addition to meperidine (Demerol®), subjects are also given an IV dose of 8 mg ondansetron (hydrochloride salt, Glaxo Wellcome).

For data set [5], the system named is healthy subjects. As to the kind of experiment: Phase 1: induced mild hypothermia by contact-pad cooling with meperidine for shivering suppression.
From the text: as §3, §4, §5, §6

The mark [6] stands for this setting: Phase 4, individual subjects, meperidine plus oral buspirone 30-60 mg.
Where [7] appears, read: Phase 4, mean ± SD, 4 subjects, meperidine plus buspirone.
Where [8] appears, read: individual subjects, meperidine.
The mark [9] stands for this setting: Phase 5, individual subjects, meperidine plus IV ondansetron 8 mg.
Setting [10] is: Phase 5, mean ± SD, 4 subjects, meperidine plus ondansetron.

With `O=C1CC2(CCCC2)CC(=O)N1CCCCN1CCN(c2ncccn2)CC1` [buspirone], in the data set on healthy subjects [1] (in vivo), the “Effect on incidence of nausea” value is “did not reduce the incidence of nausea”.
For the compound `CCOC(=O)C1(c2ccccc2)CCN(C)CC1` [meperidine], the “Cooling rate to 35° C.” value was 1.1 ° C./hr (2×) and 1.9 ° C./hr and 0.8 ° C./hr with healthy subjects [1] (setting [6]); 1.9 ° C./hr and .9 ° C./hr and 1.2 ° C./hr and 1.7 ° C./hr and 1.4 ° C./hr in the data set with healthy subjects [2] (setting [8]); 1.5 ° C./hr and 1.4 ° C./hr and 1.6 ° C./hr and 1.9 ° C./hr with healthy subjects [4] (setting [9]); 1.4 ° C./hr and 1.0 ° C./hr and 1.5 ° C./hr and 2.6 ° C./hr and 1.2 ° C./hr with healthy subjects [5] (Phase 1, individual subjects, meperidine for shivering suppression). The “Nausea or Vomiting During Treatment” value in the data set with healthy subjects [1] (setting [6]) is “Nausea early, and Vomiting end and None and Nausea mid and Nausea end”; in the data set with healthy subjects [2] (setting [8]), “Nausea end (2×) and None and Nausea early, and Nausea, and vomiting mid”; in the data set on healthy subjects [4] (setting [9]), “None (2×) and Nausea post and Nausea and vomiting”; with healthy subjects [5] (Phase 1, individual subjects, meperidine), “Pruritis and None (4×)”. Besides, the “Time to 35° C.” value was 105 min and 95 min and 63 min and 158 min in the data set with healthy subjects [1] (setting [6]); 64 min and 180 min and 95 min and 56 min and 53 min in the data set with healthy subjects [2] (individual subjects, tympanic temperature, IV meperidine 50-100 mg bolus plus additional doses, acetaminophen 1000 mg); 80 min and 58 min and 88 min and 60 min in the data set with healthy subjects [4] (setting [9]); 81 min and 105 min and 78 min and 41 min and 82 min with healthy subjects [5] (Phase 1, individual subjects, tympanic temperature, IV meperidine 25-75 mg bolus plus additional doses, acetaminophen 1000 mg, chlorpromazine in subjects 1 and 2). For the same compound, the “Total Meperidine Dose” value in the data set with healthy subjects [1] (Phase 4, individual subjects, with oral buspirone 30-60 mg) was 250 mg (3×) and 400 mg; in the data set on healthy subjects [2] (individual subjects, as needed to maintain comfort and prevent shivering, five hours) it was 400 mg and 500 mg and 350 mg (2×) and 250 mg; in the data set with healthy subjects [4] (Phase 5, individual subjects, with IV ondansetron 8 mg) it was 275 mg and 250 mg and 325 mg and 375 mg; in the data set on healthy subjects [5] (Phase 1, individual subjects, given as needed to maintain comfort and prevent shivering, up to five hours) it was 275 mg and 375 mg and 475 mg and 75 mg and 200 mg. In addition, the “Mean cooling rate to 35° C.” value was 1.2 ± .5 ° C./hr with healthy subjects [1] (setting [7]); 1.4±0.4 ° C./hr and 1.4 ± .4 ° C./hr with healthy subjects [2] (mean ± SD, 5 subjects); 1.6 ° C./hr and 1.6 ± .2 ° C./hr with healthy subjects [4] (setting [10]); 1.5±0.6 ° C./hr and 1.5 ± .6 ° C./hr with healthy subjects [5] (Phase 1, mean ± SD, 5 subjects). In the data set with healthy subjects [1] (setting [7]), the “Mean time to 35° C.” value was 105 ± 39 min. In the data set with healthy subjects [1] (Phase 4, mean ± SD, 4 subjects, with buspirone), the “Mean total meperidine dose” value is given as 288 ± 75 mg. Also, the “Mean time to reach a tympanic temperature of 35° C.” value in the data set on healthy subjects [2] (mean ± SD, 5 subjects) was 90 ± 53 min; in the data set with healthy subjects [5] (Phase 1, mean ± SD, 5 subjects) it was 77+23 min and 77 ± 23 min. The “Mean total dosage of meperidine” value with healthy subjects [2] (mean ± SD, 5 subjects) is 370 ± 91 mg and 370 mg; in the data set with healthy subjects [4] (Phase 5, mean ± SD, 4 subjects, with ondansetron), 306 ± 55 mg; with healthy subjects [5] (Phase 1, mean ± SD, 5 subjects) it was 280 ± 155 mg and 280 mg. Also, the Systolic blood pressure in the data set on healthy subjects [3] (180 min timepoint, baseline 122±13, p=0.042) is given as 140±20 mm Hg. The Respiratory compromise result in the data set on healthy subjects [3] (Phases 1 and 3a) is recorded as “no respiratory compromise is observed”. The “Subjects in whom nausea is observed” value in the data set with healthy subjects [3] (Phases 1 and 3a, all cases in Phase 3a) was 30%. Also, the “Change in blood oxygenation compared with baseline” value in the data set on healthy subjects [3] (all subjects, during cooling) was “no statistically significant change”. In addition, in the data set on healthy subjects [3] (all subjects, during cooling), the “Change in diastolic blood pressure compared with baseline” value is “no statistically significant change”. For the same compound, in the data set on healthy subjects [3] (all subjects, during cooling), the “Change in heart rate compared with baseline” value was “no statistically significant change”. Also, the “Attainment of mild hypothermia” value with healthy subjects [4] (Phase 5) and with healthy subjects [5] (Phase 1) was “attained in all subjects” each time. The “Mean time to reach a tympanic temperature of 35.0° C.” value in the data set on healthy subjects [4] (setting [10]) is 72 ± 15 min. Further, the “Withdrawal of a subject for adverse reaction to meperidine” value in the data set on healthy subjects [4] (Phase 5, one of five enrolled, caused a facial rash) is “mild allergic reaction”.
Regarding `Cc1nccn1CC1CCc2c(c3ccccc3n2C)C1=O` (stereo not drawn) [ondansetron], the “Meperidine administration in Phase 5 relative to Phase 3a” value in the data set on healthy subjects [4] (p=0.26, t-test, ondansetron 8 mg IV) is recorded as “trend toward less meperidine administration”.
